In patent US20220264910A1, “COMPOSITIONS COMPRISING AMINO ACIDS AND A FURTHER COMPONENT FOR THE SUPPLY OF AMINO ACIDS TO A MONOGASTRIC ANIMAL SUCH AS A HUMAN OR A PIG” (VETAGRO INTERNATIONAL S.R.L., priority 2019, published 2022):

Settings: pig, in vivo, po

Row | SMILES | presence of the marker in the various intestinal tracts
1 | C/C=C/C=C/C(=O)O [sorbic acid] | present in the various intestinal tracts only when administered in encapsulated form in the lipid matrix
2 | COc1cc(C=O)ccc1O [vanillin] | present in the various intestinal tracts only when administered in encapsulated form in the lipid matrix
